Patent US20200255492A1, “LEPTIN PEPTIDES AND THEIR USE FOR TREATING NEUROLOGICAL DISORDERS” (UNIVERSITY OF DUNDEE, priority 2017, published 2020)

Tests used:
[1] = tested on: GluA1 surface expression in cultured hippocampal neurons; assay: Surface labelling of AMPA receptor subunit GluA1 (immunocytochemistry); format: cell-based, Sprague Dawley rats; conditions: for surface GluA1 expression: 50 nM, 15 min; for GluA1 staining in the presence of bpV: bpV plus leptin or leptin (116-130); for GluA1 surface expression in the presence of Aβ1-42: leptin peptide 10 nM plus Aβ1-42; for GluA1 surface expression, low concentration alone: 10 nM
Experimental: Hippocampal cultures were prepared from neonatal Sprague Dawley rats as before (O'Malley et al. 2007). Briefly, neonatal Sprague Dawley rats (1-3 days old) were killed by cervical dislocation in accordance with Schedule 1 of the United Kingdom Government Animals (Scientific Procedures) Act, 1986 and the hippocampi removed. After washing in HEPES buffered saline (HBS) comprising (mM): NaCl 135; KCl 5; CaCl2 1; MgCl2 1; HEPES 10; D-glucose 25 at pH 7.4; cells were treated with protease Type X and Type XIV (0.5 mg/ml; Sigma) for 25 min at room temperature. Dissociated cells were plated onto sterile dishes (Falcon 3001) treated with poly-1-lysine (20 μg/ml; 1-2 h) and maintained in MEM with serum replacement-2 (Sigma) in a humidified atmosphere of 5% CO2 and […] at 37° C. for up to 3 weeks.
To monitor GluA1 surface expression, immunocytochemistry was performed on hippocampal cultures (7-14 DIV) as before (Moult et al. 2010). Neurons were treated with agents for 20 min at room temperature (20-22° C.) before incubation with an antibody against an N-terminal region of GluA1 (sheep anti-GluR1; in house antibody against synthetic peptide (RTSDSRDHTRVDWKR) corresponding to 253-267 residues of GluR1; 1:100; Moult et al. 2010) at 4° C. Neurons were then fixed with 4% paraformaldehyde (5 min) before adding an appropriate fluorescently labelled secondary.
Trafficking of AMPA receptors to and away from synapses is crucial for various forms of activity-dependent synaptic plasticity (Collingridge et al. 2004). Our studies indicate that leptin regulates AMPA receptor trafficking as leptin promotes trafficking of GluA1 to hippocampal synapses (Moult et al. 2010). Moreover the ability of leptin to induce LTP in adult hippocampus requires the delivery of GluA1 to synapses by leptin (Moult et al. 2010). Thus, to assess if the leptin fragments also influence AMPA receptor trafficking processes, the surface expression of GluA1 was assayed in cultured hippocampal neurons (Moult et al. 2010). In agreement with previous studies, application of leptin (50 nM; 15 min) increased surface GluA1 expression to 184±7%; (n=36; P<0.001; FIG. 2C,D) compared with control hippocampal neurons. Similarly GluA1 surface expression was elevated (to 160±6% of control; n=36; P<0.001) after exposure to 50 nM leptin (116-130; FIG. 2C,D), whereas GluA1 surface expression (98±4% of control; n=36; P>0.05) was not altered after treatment with 50 nM leptin (22-56).

[2] = tested on: differentiated human neural cells (SH-SY5Y); assay: LDH release assay (membrane leakage, cell death); format: cell-based; conditions: for reduction of LDH release compared with Aβ1-42 alone, hexamer study: n=11; for reduction of LDH release in Aβ1-42 treated cells: n=5; for reduction of LDH release compared with CuCl2 alone: 5 μM CuCl2
Experimental: The human neuroblastoma cell line, SH-SY5Y (ECACC, UK) was maintained in Dulbecco's Modified Eagle Medium supplemented with glucose ([…]) and 10% (v/v) cosmic calf serum (Fisher Scientific, UK) at 37° C. in a humidified atmosphere of 5% CO2, 95% air and allowed to reach 70-80% confluence before seeding. Cells (passage 10-18) were plated at 10 000 cells per well in 96 well tissue culture plates (Nunc, VWR, UK) and at a density of 2×10^5 cells in 35 mm dishes for protein extraction. To induce differentiation, cells were cultured in DMEM supplemented with glucose ([…]), 1% (v/v) cosmic calf serum and 10 μM retinoic acid for 5 days. Thereafter they were incubated in DMEM supplemented with glucose ([…]), serum replacement 2 (2%; Sigma, UK) and 18 μM 5-fluorodeoxyuridine to inhibit proliferation of undifferentiated cells. The 50% of the medium was changed every 2-3 days and pharmacological treatment was carried out 7 days after switching to this medium. Reagents used were (from Sigma UK unless stated) 0.1-10 nM human leptin and leptin (116-130); 0.1-10 nM leptin (22-56; Bachem; Switzerland); 10 nM leptin (116-121) leptin (117-122), leptin (124-129) or leptin (125-130; all Severn Biotech, UK); 5 μM copper chloride; […], 5 μM WP1066 or 50 nM wortmannin. All treatments were added to the culture at the same time and survival assays were carried out after 96 h treatment. Protein samples for signaling ELISA were extracted 3 h after exposure to the relevant reagents and for biomarker expression after 72 hours.
The concentration of lactate dehydrogenase (LDH) in the culture medium or the mitochondrial activity within cells was used to monitor the level of cell death, as previously (Oldreive and Doherty 2010). In certain experiments, a Crystal violet assay was used to assess total cell number. Cells were fixed in neutral buffered formalin and washed 3 times in PBS prior to staining with 0.01% crystal violet acetate for 5 min. Plates were washed 5-10 times in dH2O and cells solubilised in 100 μl dimethyl sulfoxide (DMSO) before reading the absorbance on a Biohit BP100 plate reader. For all assays, data is expressed as percentage relative to control, untreated wells to normalize for differences in plating density between individual experiments.
To determine whether leptin (116-130) has neuroprotective actions, the effects of leptin (116-130) on the viability of differentiated human neural cells (SH-SY5Y) was examined after exposure to either 5 μM CuCl2 or 10 μM Aβ1-42. Cells were treated with the toxin alone or with a range of concentrations (10-0.1 nM) of leptin or leptin (116-130). […] Thus like leptin, treatment with leptin (116-130) reduces neuronal death in response to AD-linked toxins in vitro.

[3] = tested on: GluA1 surface expression in cultured hippocampal neurons; assay: Surface labelling of AMPA receptor subunit GluA1 (immunocytochemistry); format: cell-based, Sprague Dawley rats; conditions: for GluA1 surface expression, hexamer study: 10 nM, 15 min; for GluA1 surface expression, agent alone (PTEN study): bpV 50 nM, 30 min

| Substance | reduction of LDH release compared with Aβ1-42 alone, hexamer study ([2]; 10 nM, 10 μM Aβ1-42) [%] | GluA1 surface expression, hexamer study [3] | surface GluA1 expression [1] | GluA1 staining in the presence of bpV [1] | GluA1 surface expression in the presence of Aβ1-42 [1] | reduction of LDH release in Aβ1-42 treated cells ([2]; 0.1 nM, 10 μM Aβ1-42) [%] | reduction of LDH release compared with CuCl2 alone ([2]; 10 nM) [%] | reduction of LDH release in Aβ1-42 treated cells ([2]; 10 nM, 10 μM Aβ1-42) [%] | GluA1 surface expression, agent alone (PTEN study) [3] | GluA1 surface expression, low concentration alone [1] | other results |
| --- | --- | --- | --- | --- | --- | --- | --- | --- | --- | --- | --- |
| Aβ1-42: amyloid beta 1-42, toxin used in the AD models [reference compound] |  |  |  |  |  |  |  |  |  |  | GluA1 surface expression, Aβ1-42 alone ([1]; 500 nM, 20 min, control Aβ42-1-treated neurons): 70±2 % of control; increase in LDH release, Aβ1-42 alone ([2]; 10 μM Aβ1-42): 26.7±4.4% |
| CSLPQT (listed as Mus musculus) [leptin (117-122)] | 27.4±3.5 | 167±10 % of control |  |  |  |  |  |  |  |  |  |
| SCSLPQ (listed as Mus musculus) [leptin (116-121)] | 27.1±3.1 | 146±9 % of control |  |  |  |  |  |  |  |  |  |
| SCSLPQTSGLQKPES (listed as Mus musculus) [leptin (116-130)] | 24.0 ± 2.2 | increased GluA1 surface labelling | 160±6 % of control | 148±8.1 % of control | 97±4 % of control | 26.7±17.3 | 45.6±2.92 | 46.6±9 | 167±10 % of control |  | increase in LDH release with PI3-kinase inhibitor ([2]; leptin (116-130) and Aβ1-42-treated cells plus wortmannin (50 nM)): 26.9±9.8%; increase in LDH release with STAT3 inhibitor ([2]; leptin (116-130) and Aβ1-42-treated cultures plus WP1066 (5 μM)): 18.3±3.2% |
| leptin (22-56): leptin fragment amino acids 22-56 (Bachem), comparison fragment (VPIQKVQDDTKTLIKTIVTRINDISHTQSVSSKQK; UniProt P41159 22-56, looked up, fragment) [reference compound] |  |  | 98±4 % of control |  | 51±2 % of control |  |  |  |  | no significant effect on GluA1 trafficking per se |  |
| leptin: the metabolic hormone leptin, whole (full length) leptin molecule; human leptin from Sigma in SH-SY5Y work | 25.3±2.5 |  | 184±7 % of control | 131±6.6 % of control | 101±4 % of control | 31.8±13.2 | 39.5±2.73 | 47.9±7.45 | 140±7.2 % of control | 113±7 % of control |  |
